{"source": "the NIST ThermoML archive (doi:10.1016/j.fluid.2015.05.016)", "key": {"[1]": {"settings": "298.15 K; 101.33 kPa; Liquid; Vibrating tube method"}, "[2]": {"test": "molar heat capacity at constant pressure", "settings": "298.15 K; 101.33 kPa; Liquid; Large sample (1 g) DSC"}, "[3]": {"test": "xn = mol fraction of the nth substance listed", "settings": "298.15 K, 100 kPa, Liquid, Vibrating tube method"}, "[4]": {"test": "molar heat capacity at constant pressure; xn = mol fraction of the nth substance listed", "settings": "298.15 K, 100 kPa, Liquid, Large sample (1 g) DSC"}}, "note": "± gives the expanded uncertainty stated by the source."}
{"compound": "CCC(O)CO", "note": "(stereo not drawn) [1,2-butanediol]", "values": [{"measurement": "mass density", "setting": "[1]", "result": "998.505 ± 0.068", "unit": "kg/m3"}]}
{"compound": "CCCC(O)CO", "note": "(stereo not drawn) [1,2-pentanediol]", "values": [{"measurement": "mass density", "setting": "[1]", "result": "966.678 ± 3.2", "unit": "kg/m3"}, {"measurement": "molar heat capacity at constant pressure", "setting": "[2]", "result": "266.29 ± 4.6", "unit": "J/K/mol"}]}
{"compound": "CCCC(O)CO", "note": "(stereo not drawn) [1,2-pentanediol] + CO", "values": [{"measurement": "mass density", "setting": "[3]; x1 = 0.073", "result": "832.04 ± 0.31", "unit": "kg/m3"}, {"measurement": "mass density", "setting": "[3]; x1 = 0.31", "result": "886.031 ± 0.67", "unit": "kg/m3"}, {"measurement": "mass density", "setting": "[3]; x1 = 0.5238", "result": "929.073 ± 1.2", "unit": "kg/m3"}, {"measurement": "mass density", "setting": "[3]; x1 = 0.6142", "result": "931.181 ± 1.5", "unit": "kg/m3"}, {"measurement": "mass density", "setting": "[3]; x1 = 0.7047", "result": "946.883 ± 1.8", "unit": "kg/m3"}, {"measurement": "mass density", "setting": "[3]; x1 = 0.8127", "result": "950.977 ± 2.3", "unit": "kg/m3"}, {"measurement": "mass density", "setting": "[3]; x1 = 0.914", "result": "961.834 ± 2.8", "unit": "kg/m3"}, {"measurement": "mass density", "setting": "[3]; x1 = 1", "result": "966.678 ± 3.2", "unit": "kg/m3"}, {"measurement": "molar heat capacity at constant pressure", "setting": "[4]; x1 = 0.073", "result": "94.77 ± 1.5", "unit": "J/K/mol"}, {"measurement": "molar heat capacity at constant pressure", "setting": "[4]; x1 = 0.1773", "result": "114.15 ± 1.8", "unit": "J/K/mol"}, {"measurement": "molar heat capacity at constant pressure", "setting": "[4]; x1 = 0.31", "result": "138.7 ± 2.1", "unit": "J/K/mol"}, {"measurement": "molar heat capacity at constant pressure", "setting": "[4]; x1 = 0.3868", "result": "152.56 ± 2.4", "unit": "J/K/mol"}, {"measurement": "molar heat capacity at constant pressure", "setting": "[4]; x1 = 0.5238", "result": "178.04 ± 2.8", "unit": "J/K/mol"}, {"measurement": "molar heat capacity at constant pressure", "setting": "[4]; x1 = 0.6142", "result": "194.86 ± 3", "unit": "J/K/mol"}, {"measurement": "molar heat capacity at constant pressure", "setting": "[4]; x1 = 0.7047", "result": "211.81 ± 3.3", "unit": "J/K/mol"}, {"measurement": "molar heat capacity at constant pressure", "setting": "[4]; x1 = 0.8127", "result": "231.91 ± 3.6", "unit": "J/K/mol"}, {"measurement": "molar heat capacity at constant pressure", "setting": "[4]; x1 = 0.914", "result": "250.63 ± 3.9", "unit": "J/K/mol"}, {"measurement": "molar heat capacity at constant pressure", "setting": "[4]; x1 = 1", "result": "266.29 ± 4.1", "unit": "J/K/mol"}]}
{"compound": "CC(O)CO", "note": "(stereo not drawn) [1,2-propanediol]", "values": [{"measurement": "mass density", "setting": "[1]", "result": "1032.55 ± 0.11", "unit": "kg/m3"}, {"measurement": "molar heat capacity at constant pressure", "setting": "[2]", "result": "191.71 ± 3.2", "unit": "J/K/mol"}]}
{"compound": "CC(O)CO", "note": "(stereo not drawn) [1,2-propanediol] + CO", "values": [{"measurement": "molar heat capacity at constant pressure", "setting": "[4]; x1 = 0.0743", "result": "89.47 ± 1.4", "unit": "J/K/mol"}, {"measurement": "molar heat capacity at constant pressure", "setting": "[4]; x1 = 0.2305", "result": "106.48 ± 1.6", "unit": "J/K/mol"}, {"measurement": "molar heat capacity at constant pressure", "setting": "[4]; x1 = 0.3354", "result": "118.08 ± 1.8", "unit": "J/K/mol"}, {"measurement": "molar heat capacity at constant pressure", "setting": "[4]; x1 = 0.4104", "result": "126.35 ± 2", "unit": "J/K/mol"}, {"measurement": "molar heat capacity at constant pressure", "setting": "[4]; x1 = 0.51", "result": "137.4 ± 2.1", "unit": "J/K/mol"}, {"measurement": "molar heat capacity at constant pressure", "setting": "[4]; x1 = 0.6498", "result": "152.77 ± 2.4", "unit": "J/K/mol"}, {"measurement": "molar heat capacity at constant pressure", "setting": "[4]; x1 = 0.7273", "result": "161.34 ± 2.5", "unit": "J/K/mol"}, {"measurement": "molar heat capacity at constant pressure", "setting": "[4]; x1 = 0.7821", "result": "167.69 ± 2.6", "unit": "J/K/mol"}, {"measurement": "molar heat capacity at constant pressure", "setting": "[4]; x1 = 0.8985", "result": "180.45 ± 2.8", "unit": "J/K/mol"}, {"measurement": "molar heat capacity at constant pressure", "setting": "[4]; x1 = 1", "result": "191.71 ± 3", "unit": "J/K/mol"}]}
{"compound": "CO", "note": "[methanol]", "values": [{"measurement": "mass density", "setting": "[1]", "result": "786.585 ± 0.24", "unit": "kg/m3"}, {"measurement": "molar heat capacity at constant pressure", "setting": "[2]", "result": "81.37 ± 1.4", "unit": "J/K/mol"}]}
{"compound": "CO", "note": "[methanol] + CC(O)CO", "values": [{"measurement": "molar heat capacity at constant pressure", "setting": "[4]; x2 = 0", "result": "81.37 ± 1.3", "unit": "J/K/mol"}]}
{"compound": "CO", "note": "[methanol] + CCCC(O)CO", "values": [{"measurement": "mass density", "setting": "[3]; x2 = 0", "result": "786.585 ± 0.24", "unit": "kg/m3"}, {"measurement": "molar heat capacity at constant pressure", "setting": "[4]; x2 = 0", "result": "81.37 ± 1.3", "unit": "J/K/mol"}]}
